Data as given in patent publication US11071738B2, “Therapeutic agent for fatty liver diseases and therapeutic agent for adiposity” (Hiroshima University, priority 2017, dated 2021).

Test system: NASH model mice (HFDT)
Assay: not given
Conditions: HFDT NASH mice, 8 weeks; i.p. 2.5 mg/kg/day or oral 5.0 mg/kg/day three times a week
Method: Animal experiments were performed using non-alcoholic steatohepatitis (NASH) model mice to test the compounds synthesized in Examples for the therapeutic effect on NASH.
NASH model mice (hereinafter referred to as “NASH mice”) were produced by feeding a high-fat diet containing trans fatty acids (HFDT) to individual male laboratory mice (C57BL/6J) for 8 weeks. […] In addition, a normal diet was given to individual male laboratory mice (C57BL/6J) for 8 weeks to prepare control mice.

| SMILES | fasting blood glucose level | blood ALT (GPT) value, index of liver inflammation | increase in liver weight |
| --- | --- | --- | --- |
| COC(=O)[C@@H](Cc1ccc2ccccc2c1)NC(=O)n1c2ccccc2c2ccccc21 [Compound H-144] | no significant abnormality | decreased | significantly reduced |
| O=C(O)[C@@H](Cc1ccc2ccccc2c1)NC(=O)n1c2ccccc2c2ccccc21 [Compound H-163] | no significant abnormality | decreased | significantly reduced |

Same assay, conditions: HFDT NASH mice, 8 weeks; oral 5.0 mg/kg/day three times a week

| SMILES | fasting blood glucose level | increase in liver weight |
| --- | --- | --- |
| O=C1C=CC(=O)c2c(O)cccc21 [Juglone, reference compound] | abnormal increase | significantly reduced |

Same assay, conditions: HFDT NASH mice; i.p. 2.5 mg/kg/day three times a week

| SMILES | death of mice |
| --- | --- |
| O=C1C=CC(=O)c2c(O)cccc21 [Juglone, reference compound] | all dead within 8 weeks |

Same assay, conditions: HFDT NASH mice; oral 5.0 mg/kg/day three times a week

| SMILES | death of mice |
| --- | --- |
| O=C1C=CC(=O)c2c(O)cccc21 [Juglone, reference compound] | not dead |

Same assay, conditions: NASH mice given HFDT

| SMILES | fat accumulation in liver tissue (microscopic observation) |
| --- | --- |
| O=C(O)[C@@H](Cc1ccc2ccccc2c1)NC(=O)n1c2ccccc2c2ccccc21 [Compound H-163] | significantly reduced |

Test system: NASH mice (MCDD)
Assay: NASH treatment study in mice fed a methionine-choline-deficient diet (MCDD)
Assay type: in vivo, mice (C57BL/6J)
Conditions: NASH mice given MCDD, 8 weeks; i.p. 2.5 mg/kg/day three times a week
Method: Next, an animal experiment was performed on NASH mice that were produced by feeding a methionine-choline-deficient diet (MCDD).

| SMILES | hepatic fibrosis (Azan staining) | fat accumulation in liver tissue (microscopic observation) |
| --- | --- | --- |
| O=C(O[C@H](Cc1ccc2ccccc2c1)C(=O)O)C1c2ccccc2-c2ccccc21 [Compound H-31] | significantly inhibited | – |
| O=C(O)[C@@H](Cc1ccc2ccccc2c1)NC(=O)n1c2ccccc2c2ccccc21 [Compound H-163] | significantly inhibited | reduced |

Same assay, conditions: NASH mice given MCDD; i.p. 2.5 mg/kg/day three times a week

| SMILES | Collagen 1a1 mRNA expression level | Collagen 1a2 mRNA expression level | SMA mRNA expression level |
| --- | --- | --- | --- |
| O=C(O[C@H](Cc1ccc2ccccc2c1)C(=O)O)C1c2ccccc2-c2ccccc21 [Compound H-31] | reduced | reduced | reduced |
| O=C(O)[C@@H](Cc1ccc2ccccc2c1)NC(=O)n1c2ccccc2c2ccccc21 [Compound H-163] | reduced | reduced | reduced |

Target: T1, Pin1 (Homo sapiens, UniProt Q13526)
T1 construct: endogenous in cells; host or cells: 293T cells
Assay: Cell-based Pin1 inhibition assay with AMPK phosphorylation level as index
Design: key to Pin1 inhibition activity: +++: a higher level of AMPK phosphorylation is promoted, as compared with C1; ++: a similar level of AMPK phosphorylation is promoted, as compared with C1; +: a lower level of AMPK phosphorylation is promoted, as compared with C1; −: no or almost no promotion is found in AMPK phosphorylation
Conditions: 293T cells, compound at 100 μM, 10 mM 2-DG, pAMPK blot compared with C1
Method: To evaluate the inhibitory activity of each synthesized compound against the function of Pin1, a cell-based assay was performed according to the method previously developed by the inventors (Yusuke Nakatsu et al., Journal of Biological Chemistry, 2015, Vol. 290, No. 40, pp. 24255-24266), in which the phosphorylation level of AMPK (AMP-activated protein kinase), a protein whose phosphorylation is inhibited by Pin1, was examined as an index.
Briefly, 293T cells were plated on a collagen-coated 24-well plate. Forty-eight hours later, each compound synthesized in the preceding example (at 100 μM) was added to the plate, and the plate was left to stand in an incubator for 30 minutes. Subsequently, 10 mM 2-DG was added to the plate, and one hour later, each sample was collected with a buffer containing mercaptoethanol and SDS.
SDS-PAGE and blotting were performed, and blocking was then performed with 3% BSA for 1 hour, according to conventional protocols. Subsequently, a pAMPK antibody (Cell Signaling; diluted 1:2000 in Can Get Signal Solution 1, Toyobo) as a primary antibody, and an HRP-linked anti rabbit IgG (GE Healthcare; diluted 1:4000 in Can Get Signal Solution 2, Toyobo) as a secondary antibody were allowed to react at ambient temperature for 1 hour prior to detection.
The inhibitory activity against the function of Pin1 was evaluated by comparing the inhibition levels between each compound and a known Pin1 inhibitor, C1, as indicated below: […]

T1 sequence (Q13526 whole entry): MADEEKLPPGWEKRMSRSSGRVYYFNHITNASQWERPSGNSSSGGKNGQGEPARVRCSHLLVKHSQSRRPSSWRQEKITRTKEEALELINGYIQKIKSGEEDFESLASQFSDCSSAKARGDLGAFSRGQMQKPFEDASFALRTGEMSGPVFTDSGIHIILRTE

| Pin1 inhibition activity | SMILES |
| --- | --- |
| ++ | O=C(O[C@H](Cc1ccc2ccccc2c1)C(=O)O)c1ccc(C(O)c2ccccc2)cc1 (some centres unmarked) [Compound H-23] |
| ++ | O=C(O[C@H](Cc1ccc2ccccc2c1)C(=O)O)c1ccc2ccccc2c1 [Compound H-30] |
| +++ | O=C(O[C@H](Cc1ccc2ccccc2c1)C(=O)O)C1c2ccccc2-c2ccccc21 [Compound H-31] |
| ++ | O=C(CC1c2ccccc2-c2ccccc21)O[C@H](Cc1ccc2ccccc2c1)C(=O)O [Compound H-106] |
| +++ | O=C(N[C@H](Cc1ccc2ccccc2c1)C(=O)O)C1c2ccccc2-c2ccccc21 [Compound H-109] |
| +++ | O=C(O[C@@H](Cc1ccc2ccccc2c1)C(=O)O)C1c2ccccc2-c2ccccc21 [Compound H-141] |
| + | O=C(Cc1ccc2ccccc2c1)O[C@H](Cc1ccc2ccccc2c1)C(=O)O [Compound H-149] |
| ++ | O=C(O)[C@@H](Cc1ccc2ccccc2c1)NC(=O)N(c1ccccc1)c1ccccc1 [Compound H-161] |
| ++ | O=C(O)[C@@H](Cc1ccc2ccccc2c1)NC(=O)N1c2ccccc2Oc2ccccc21 [Compound H-162] |
| +++ | O=C(O)[C@@H](Cc1ccc2ccccc2c1)OC(=O)n1c2ccccc2c2ccccc21 [Compound H-175] |
| ++ | O=C(COc1ccccc1)O[C@H](Cc1ccc2ccccc2c1)C(=O)O [Compound H-176] |
| +++ | O=C(O)[C@@H](Cc1ccc2ccccc2c1)NC(=O)N1c2ccccc2CCc2ccccc21 [Compound H-178] |
| +++ | O=C(COc1cccc2ccccc12)O[C@H](Cc1ccc2ccccc2c1)C(=O)O [Compound H-179] |
| ++ | O=C(Cc1c[nH]c2ccccc12)O[C@H](Cc1ccc2ccccc2c1)C(=O)O [Compound H-180] |
| + | CC(C)(C)OC(=O)N[C@@H](Cc1ccccc1)C(=O)O[C@H](Cc1ccc2ccccc2c1)C(=O)O [Compound H-248] |
| + | COC(=O)[C@@H](Cc1ccc2ccccc2c1)NC(=O)CN1c2ccccc2C2C=CC=CC21 (some centres unmarked) [Compound H-521] |

Further lines, the molecule ahead of its results:

| SMILES | Pin1 inhibition activity |
| --- | --- |
| O=C(O[C@H](Cc1ccc2ccccc2c1)C(=O)OCc1ccccc1)c1ccc2ccccc2c1 [Compound H-21] | − (Hydrolysis causes conversion to H-30, which is active) |
| COc1ccc(-c2cc(C(=O)O[C@H](Cc3ccc4ccccc4c3)C(=O)O)c(C)o2)cc1 [Compound H-32] | + |
| O=C(O[C@H](Cc1ccc2ccccc2c1)C(=O)O)c1ccc(-c2ccccc2)cc1 [Compound H-33] | + |
| COC(=O)c1ccc2cc(C(=O)N[C@H](Cc3ccc4ccccc4c3)C(=O)O)ccc2c1 [Compound H-62] | + |
| O=C(O)[C@@H](Cc1ccc2ccccc2c1)NC(=O)C1(O)c2ccccc2-c2ccccc21 [Compound H-101] | ++ |
| O=C(CC1c2ccccc2-c2ccccc21)N[C@H](Cc1ccc2ccccc2c1)C(=O)O [Compound H-103] | +++ |
| O=C(N[C@H](Cc1ccc2ccccc2c1)C(=O)OCc1ccccc1)C1c2ccccc2-c2ccccc21 [Compound H-105] | − (Hydrolysis causes conversion to H-109, which is active) |
| O=C(O[C@H](Cc1ccc2ccccc2c1)C(=O)O)c1ccc(Oc2ccccc2)cc1 [Compound H-123] | ++ |
| O=C(O[C@H](Cc1ccc2ccccc2c1)C(=O)O)c1cccc(Oc2ccccc2)c1 [Compound H-130] | ++ |
| O=C(O[C@H](Cc1ccc2ccccc2c1)C(=O)O)c1ccccc1Oc1ccccc1 [Compound H-132] | + |
| O=C(O[C@H](Cc1ccc2ccccc2c1)C(=O)O)C(c1ccccc1)c1ccccc1 [Compound H-134] | ++ |
| O=C(Cc1cccc2ccccc12)O[C@H](Cc1ccc2ccccc2c1)C(=O)O [Compound H-151] | ++ |
| O=C(O)[C@@H](Cc1ccc2ccccc2c1)OC(=O)N1c2ccccc2Oc2ccccc21 [Compound H-157] | ++ |
| O=C(Cc1ccc2ccccc2c1)N[C@H](Cc1ccc2ccccc2c1)C(=O)O [Compound H-158] | ++ |
| O=C(O)[C@@H](Cc1ccc2ccccc2c1)NC(=O)n1c2ccccc2c2ccccc21 [Compound H-163] | ++ |
| O=C(O)[C@@H](Cc1ccc2ccccc2c1)NC(=O)N1c2ccccc2C=Cc2ccccc21 [Compound H-164] | + |
| O=C(COc1ccc2ccccc2c1)O[C@H](Cc1ccc2ccccc2c1)C(=O)O [Compound H-177] | ++ |
| COc1cc(OC)cc(C(=O)O[C@H](Cc2ccc3ccccc3c2)C(=O)O)c1 [Compound H-198] | + |
| O=C(O[C@H](Cc1ccc2ccccc2c1)C(=O)O)c1cc(Cl)cc(Cl)c1 [Compound H-200] | + |
| Cc1cc(C)cc(C(=O)O[C@H](Cc2ccc3ccccc3c2)C(=O)O)c1 [Compound H-210] | + |
| CN(C)c1ccc(C(=O)O[C@H](Cc2ccc3ccccc3c2)C(=O)O)cc1 [Compound H-212] | + |
| Cc1ccc(C(=O)O[C@H](Cc2ccc3ccccc3c2)C(=O)O)cc1C [Compound H-265] | + |
| COc1ccc(C(=O)O[C@H](Cc2ccc3ccccc3c2)C(=O)O)cc1OC [Compound H-266] | + |
| O=C(O[C@H](Cc1ccc2ccccc2c1)C(=O)O)c1ccc(Cl)c(Cl)c1 [Compound H-269] | + |
| O=C(O[C@H](Cc1ccc2ccccc2c1)C(=O)O)c1ccc(F)c(F)c1 [Compound H-270] | + |
| O=C(Nc1ccccc1Oc1ccccc1)N[C@H](Cc1ccc2ccccc2c1)C(=O)O [Compound H-334] | +++ |
| O=C(Nc1ccc(C(=O)c2ccccc2)cc1)N[C@H](Cc1ccc2ccccc2c1)C(=O)O [Compound H-341] | ++ |
| O=C(Cn1c2ccccc2c2ccccc21)N[C@H](Cc1ccc2ccccc2c1)C(=O)O [Compound H-536] | + |

Same assay, conditions: cell-based assay, 293T cells, compound at 100 μM

| SMILES | Pin1 inhibition activity (in words) |
| --- | --- |
| O=C(N[C@H](Cc1ccc2ccccc2c1)C(=O)OCc1ccccc1)C1c2ccccc2-c2ccccc21 [Compound H-105] | no Pin1 inhibition activity |
